Data published in patent publication US20230312576A1, “4-(7H-PYRROLO[2,3-D]PYRIMIDIN-4-YL)-3,6-DIHYDROPYRIDINE-1-(2H)-CARBOXAMIDE DERIVATIVES AS LIMK AND/OR ROCK KINASES INHIBITORS FOR USE IN THE TREATMENT OF CANCER” (CENTRE NATIONAL DE LA RECHERCHE SCIENTIFIQUE, priority 2020, published 2023).
Read-outs that look alike come from different tables or passages of the source.

What was measured:
LIMK1 = LIMK1 (Homo sapiens (Human), UniProt P53667); experiment: Lanthascreen Eu binding assay (TR-FRET), inhibition of LIMK1; details: Lanthascreen Eu binding assay
LIMK2 = LIMK2 (Homo sapiens (Human), UniProt P53671); experiment: Lanthascreen Eu binding assay (TR-FRET), inhibition of LIMK2; details: Lanthascreen Eu binding assay
ROCK1 = ROCK1 (Homo sapiens (Human), UniProt Q13464); experiment: Z'Lyte assay, ROCK1 inhibition at a single concentration; assay type: biochemical; details: for inhibition at 1 µM: read-out: % inhibition (ROCK1) 1 uM, 1 uM
ROCK2 = ROCK2 (Homo sapiens (Human), UniProt O75116); experiment: Z'Lyte assay, ROCK2 inhibition at a single concentration; assay type: biochemical; details: for inhibition at 1 µM: read-out: % inhibition (ROCK2) 1 uM, 1 uM
[1] = tested on: cofilin phosphorylation, HeLa cells; experiment: Cofilin phosphorylation by Western Blot (anti-phospho-Ser3-cofilin) in HeLa cells; assay type: cell-based; details: for inhibition at 25 µM: Homo sapiens
[2] = HeLa, 2 h, read-out: % inhibition of cofilin phosphorylation in HeLa cells (treatment 2 h, at 25 μM), Table 2, normalized to the control condition DMSO
[3] = read-out: % inhibition Cofilin phosphorylation HeLa cells treated 2 h with 25 uM of inhibitor, HeLa cells, 2 h, 25 uM

Sequence of ROCK2 (O75116 whole entry): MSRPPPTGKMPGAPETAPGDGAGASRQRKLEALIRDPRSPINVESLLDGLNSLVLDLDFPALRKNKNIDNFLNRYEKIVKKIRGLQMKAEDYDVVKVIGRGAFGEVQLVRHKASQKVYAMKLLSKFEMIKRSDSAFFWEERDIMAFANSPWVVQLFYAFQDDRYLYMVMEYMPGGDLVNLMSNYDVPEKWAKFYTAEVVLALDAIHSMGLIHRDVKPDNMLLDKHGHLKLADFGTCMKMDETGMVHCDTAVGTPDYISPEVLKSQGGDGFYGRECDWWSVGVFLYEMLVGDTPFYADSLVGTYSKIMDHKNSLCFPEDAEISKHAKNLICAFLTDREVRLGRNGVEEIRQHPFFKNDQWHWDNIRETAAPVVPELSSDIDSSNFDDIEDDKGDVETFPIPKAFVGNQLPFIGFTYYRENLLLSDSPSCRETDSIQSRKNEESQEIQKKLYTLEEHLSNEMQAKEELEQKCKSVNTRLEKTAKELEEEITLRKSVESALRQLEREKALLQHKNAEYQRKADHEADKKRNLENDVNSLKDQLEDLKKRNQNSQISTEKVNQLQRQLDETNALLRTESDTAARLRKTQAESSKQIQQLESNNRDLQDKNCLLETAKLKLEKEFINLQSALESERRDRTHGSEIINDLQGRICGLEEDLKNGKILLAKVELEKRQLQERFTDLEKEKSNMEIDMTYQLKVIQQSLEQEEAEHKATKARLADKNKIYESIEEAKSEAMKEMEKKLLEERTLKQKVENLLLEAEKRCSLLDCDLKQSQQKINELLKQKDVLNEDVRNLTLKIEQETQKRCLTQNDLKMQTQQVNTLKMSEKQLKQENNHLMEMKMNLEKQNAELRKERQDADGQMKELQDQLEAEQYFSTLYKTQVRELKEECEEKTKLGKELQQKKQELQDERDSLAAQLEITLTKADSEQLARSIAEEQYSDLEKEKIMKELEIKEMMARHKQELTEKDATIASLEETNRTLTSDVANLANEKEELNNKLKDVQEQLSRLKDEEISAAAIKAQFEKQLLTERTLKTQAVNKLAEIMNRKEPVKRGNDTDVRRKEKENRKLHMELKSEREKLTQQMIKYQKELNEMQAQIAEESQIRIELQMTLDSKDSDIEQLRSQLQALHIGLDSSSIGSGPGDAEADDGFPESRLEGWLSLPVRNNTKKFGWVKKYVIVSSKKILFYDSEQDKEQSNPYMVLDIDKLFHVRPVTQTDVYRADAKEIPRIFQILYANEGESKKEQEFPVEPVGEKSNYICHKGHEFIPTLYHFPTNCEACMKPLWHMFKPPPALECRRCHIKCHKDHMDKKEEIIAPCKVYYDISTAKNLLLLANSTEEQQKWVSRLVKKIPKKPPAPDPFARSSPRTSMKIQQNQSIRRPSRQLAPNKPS
Sequence of LIMK2 (P53671 whole entry): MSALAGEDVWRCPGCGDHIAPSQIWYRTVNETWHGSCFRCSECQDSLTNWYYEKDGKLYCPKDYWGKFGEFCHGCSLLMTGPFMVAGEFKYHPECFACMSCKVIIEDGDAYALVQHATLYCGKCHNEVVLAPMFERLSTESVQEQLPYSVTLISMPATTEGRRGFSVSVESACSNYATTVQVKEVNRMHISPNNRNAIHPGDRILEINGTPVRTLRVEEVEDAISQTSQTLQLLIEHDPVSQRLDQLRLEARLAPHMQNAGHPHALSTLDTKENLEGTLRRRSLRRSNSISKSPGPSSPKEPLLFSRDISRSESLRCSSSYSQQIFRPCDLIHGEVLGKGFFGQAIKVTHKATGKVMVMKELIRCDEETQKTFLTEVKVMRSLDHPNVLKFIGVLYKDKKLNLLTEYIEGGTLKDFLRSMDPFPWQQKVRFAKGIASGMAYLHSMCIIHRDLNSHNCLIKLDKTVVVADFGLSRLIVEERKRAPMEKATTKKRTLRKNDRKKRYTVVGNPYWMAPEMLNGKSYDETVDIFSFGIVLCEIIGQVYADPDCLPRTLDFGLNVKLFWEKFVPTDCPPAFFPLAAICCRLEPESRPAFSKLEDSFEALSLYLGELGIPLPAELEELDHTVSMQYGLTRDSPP
Sequence of LIMK1 (P53667 whole entry): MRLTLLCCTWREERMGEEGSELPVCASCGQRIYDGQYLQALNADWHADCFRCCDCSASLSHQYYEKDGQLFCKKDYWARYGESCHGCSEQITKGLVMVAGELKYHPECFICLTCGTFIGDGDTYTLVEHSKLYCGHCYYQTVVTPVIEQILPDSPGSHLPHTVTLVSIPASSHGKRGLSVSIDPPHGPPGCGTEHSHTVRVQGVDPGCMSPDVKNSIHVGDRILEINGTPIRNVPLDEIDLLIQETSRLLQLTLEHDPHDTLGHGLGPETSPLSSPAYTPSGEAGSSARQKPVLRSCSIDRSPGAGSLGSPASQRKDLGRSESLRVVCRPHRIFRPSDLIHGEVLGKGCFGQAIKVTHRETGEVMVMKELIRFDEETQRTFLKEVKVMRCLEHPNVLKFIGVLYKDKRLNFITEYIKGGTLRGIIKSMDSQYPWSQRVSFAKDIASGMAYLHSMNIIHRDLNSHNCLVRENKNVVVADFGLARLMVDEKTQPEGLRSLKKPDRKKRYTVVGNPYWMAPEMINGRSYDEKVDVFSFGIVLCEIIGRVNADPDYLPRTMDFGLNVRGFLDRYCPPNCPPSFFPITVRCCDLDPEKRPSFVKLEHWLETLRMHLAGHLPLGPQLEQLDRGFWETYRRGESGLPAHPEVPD
Sequence of ROCK1 (Q13464 whole entry): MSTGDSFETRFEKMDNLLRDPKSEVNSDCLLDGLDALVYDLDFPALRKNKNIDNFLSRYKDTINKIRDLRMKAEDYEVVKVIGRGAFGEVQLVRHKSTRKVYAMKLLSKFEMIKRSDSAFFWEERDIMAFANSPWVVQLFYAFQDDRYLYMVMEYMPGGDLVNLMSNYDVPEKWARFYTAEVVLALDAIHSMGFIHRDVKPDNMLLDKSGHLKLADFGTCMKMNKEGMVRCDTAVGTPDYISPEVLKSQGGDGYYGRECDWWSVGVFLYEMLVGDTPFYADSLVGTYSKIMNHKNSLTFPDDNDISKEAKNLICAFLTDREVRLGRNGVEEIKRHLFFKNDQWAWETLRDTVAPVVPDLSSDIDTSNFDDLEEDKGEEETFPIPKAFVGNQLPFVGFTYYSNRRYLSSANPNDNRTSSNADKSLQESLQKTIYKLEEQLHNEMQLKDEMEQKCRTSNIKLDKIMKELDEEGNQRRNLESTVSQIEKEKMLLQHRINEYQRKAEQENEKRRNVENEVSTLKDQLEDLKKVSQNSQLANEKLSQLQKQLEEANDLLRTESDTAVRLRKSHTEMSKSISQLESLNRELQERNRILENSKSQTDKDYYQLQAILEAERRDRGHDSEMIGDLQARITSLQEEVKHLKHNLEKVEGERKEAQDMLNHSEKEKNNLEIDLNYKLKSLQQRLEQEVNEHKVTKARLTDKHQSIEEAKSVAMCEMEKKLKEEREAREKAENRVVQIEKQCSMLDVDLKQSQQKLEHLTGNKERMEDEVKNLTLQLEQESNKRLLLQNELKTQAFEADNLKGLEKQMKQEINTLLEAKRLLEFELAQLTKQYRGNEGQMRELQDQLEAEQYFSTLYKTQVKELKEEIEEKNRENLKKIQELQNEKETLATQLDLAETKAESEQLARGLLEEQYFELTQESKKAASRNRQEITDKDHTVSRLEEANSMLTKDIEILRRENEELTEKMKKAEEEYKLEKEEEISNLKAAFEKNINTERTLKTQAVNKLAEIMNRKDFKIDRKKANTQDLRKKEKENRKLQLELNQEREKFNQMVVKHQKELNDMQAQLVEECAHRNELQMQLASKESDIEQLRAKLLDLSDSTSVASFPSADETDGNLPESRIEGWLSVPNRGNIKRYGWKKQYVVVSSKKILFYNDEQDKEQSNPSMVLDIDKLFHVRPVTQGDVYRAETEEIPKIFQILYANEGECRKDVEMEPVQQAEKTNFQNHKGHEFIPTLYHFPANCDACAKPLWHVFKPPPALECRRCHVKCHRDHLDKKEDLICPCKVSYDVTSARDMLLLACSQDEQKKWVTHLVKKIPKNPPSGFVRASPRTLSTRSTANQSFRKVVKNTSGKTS

| Structure (SMILES) | Ki (LIMK1) | Ki (LIMK2) | inhibition at 1 µM (ROCK1) | inhibition at 1 µM (ROCK2) | % inhibition (ROCK1) 1 uM (ROCK1; 1 uM) | % inhibition (ROCK2) 1 uM (ROCK2; 1 uM) | inhibition at 25 µM [1, 2] | inhibition at 25 µM [1, 3] | % inhibition Cofilin phosphorylation HeLa cells treated 2 h with 25 uM of inhibitor ([1]; HeLa cells, 2 h, 25 uM) | % inhibition of cofilin phosphorylation in HeLa cells (treatment 2 h, at 25 μM) ([1]; Table 2, normalized to the control condition DMSO) |
| --- | --- | --- | --- | --- | --- | --- | --- | --- | --- | --- |
| CCc1cccc(NC(=O)N2CC=C(c3ncnc4[nH]c5c(c34)CCC5)CC2)c1 [Compound 129, N-(3-Ethylphenyl)-4-(7,9,11-triazatricyclo[6.4.0.02,6]dodeca-1(8),2(6),9,11-tetraen-12-yl)-3,6-dihydropyridine-1(2H)-carboxamide] | 16.6 nM | 54.9 nM | 18% | 11% |  |  | 84.5% | 84.5% |  |  |
| O=C(Nc1cccc(N2CCOCC2)c1)N1CC=C(c2ncnc3[nH]c4c(c23)CCC4)CC1 [Compound 130, N-(3-morpholinophenyl)-4-(7,9,11-triazatricyclo[6.4.0.02,6]dodeca-1(8),2(6),9,11-tetraen-12-yl)-3,6-dihydropyridine-1(2H)-carboxamide] | 26.7 nM | 87.5 nM | 26% | 0% |  |  | 79.2% | 79.2% |  |  |
| COCOCc1cccc(NC(=O)N2CC=C(c3ncnc4[nH]c5c(c34)CCC5)CC2)c1 [Compound 135, N-[3-(Methoxymethoxymethyl)phenyl]-4-(7,9,11-triaza-tricyclo[6.4.0.02,6]dodeca-1(8),2(6),9,11-tetraen-12-yl)-3,6-dihydropyridine-1(2H)-carboxamide] | 22.1 nM | 36.2 nM | -14% | -3% |  |  | 85% | 85% |  |  |
| COc1ccc(-c2cccc(NC(=O)N3CC=C(c4ncnc5[nH]c6c(c45)CCC6)CC3)c2)cc1 [Compound 136, N-[3-(4-Methoxyphenyl)phenyl]-4-(7,9,11-triaza-tricyclo[6.4.0.02,6]dodeca-1(8),2(6),9,11-tetraen-12-yl)-3,6-dihydropyridine-1(2H)-carboxamide] | 2.75 nM | 21.6 nM | 6% | 11% |  |  | 85.5% | 85.5% |  |  |

Now from value to compound, other results behind:

| Ki (LIMK1) | Ki (LIMK2) | inhibition at 1 µM (ROCK1) | inhibition at 1 µM (ROCK2) | % inhibition (ROCK1) 1 uM (ROCK1; 1 uM) | % inhibition (ROCK2) 1 uM (ROCK2; 1 uM) | Structure (SMILES) | inhibition at 25 µM [1, 2] | inhibition at 25 µM [1, 3] | % inhibition Cofilin phosphorylation HeLa cells treated 2 h with 25 uM of inhibitor ([1]; HeLa cells, 2 h, 25 uM) | % inhibition of cofilin phosphorylation in HeLa cells (treatment 2 h, at 25 μM) ([1]; Table 2, normalized to the control condition DMSO) |
| --- | --- | --- | --- | --- | --- | --- | --- | --- | --- | --- |
| 46.9 nM | 8.73 nM | 14% | 1% |  |  | CN(C)C(=O)Nc1cccc(NC(=O)N2CC=C(c3ncnc4[nH]c5c(c34)CCC5)CC2)c1 [Compound 131, N-[3-(Dimethylcarbamoylamino)phenyl]-4-(7,9,11-triaza-tricyclo[6.4.0.02,6]dodeca-1(8),2(6),9,11-tetraen-12-yl)-3,6-dihydropyridine-1(2H)-carboxamide] | 82.9% | 82.9% |  |  |
| 389 nM | 415 nM | -6% | 2% |  |  | CN(C)Cc1cccc(NC(=O)N2CC=C(c3ncnc4[nH]c5c(c34)CCC5)CC2)c1 [Compound 132, N-[3-[(dimethylamino)methyl]phenyl]-4-(7,9,11-triaza-tricyclo[6.4.0.02,6]dodeca-1(8),2(6),9,11-tetraen-12-yl)-3,6-dihydropyridine-1(2H)-carboxamide] | 76.2% | 76.2% |  |  |
| 49.1 nM | 40.5 nM |  |  | −19% | 1% | CNC(=O)c1cccc(NC(=O)N2CC=C(c3ncnc4[nH]c5c(c34)CCC5)CC2)c1 [Compound 133, N-[3-(Methylcarbamoyl)phenyl]-4-(7,9,11-triazatricyclo [6.4.0.02,6]dodeca-1(8),2(6),9,11-tetraen-12-yl)-3,6-dihydropyridine-1(2)-carboxamide] |  |  | 78.8% | 78.8% |
| 36.1 nM | 33.4 nM | -20% | -5% |  |  | CN(C)C(=O)c1cccc(NC(=O)N2CC=C(c3ncnc4[nH]c5c(c34)CCC5)CC2)c1 [Compound 134, N-[3-(Dimethylcarbamoyl)phenyl]-4-(7,9,11-triazatricyclo [6.4.0.02,6]dodeca-1(8),2(6),9,11-tetraen-12-yl)-3,6-dihydropyridine-1(2H)-carboxamide] | 77.1% | 77.1% |  |  |
